Results: patent publication US9511010B2, “Compounds useful in the treatment and/or care of the skin, hair and/or mucous membranes and their cosmetic or pharmaceutical compositions” (Lubrizol Advanced Materials, Inc., priority 2012, dated 2016)

Tests used:
Format in all cases: cell-based
[1] = test system: Adult human epidermal keratinocytes (HEKa); test: Profile of the gene expression of human epidermal keratinocytes (microarray); settings: 0.1 mg/ml, 24 hours, vs untreated cells
Procedure: Adult human epidermal keratinocytes (HEKa) were seeded (15×10^4 cells/vial cells/vial T25 cm^2), and were incubated in complete Epilife medium for 7 days at 37° C. in an atmosphere with 5% CO2. After the incubation, the cells were treated for 24 hours at 37° C. in an atmosphere with 5% CO2 with 0.1 mg/ml of the compound Ac-L-Tyr-L-Glu-L-Lys-L-Leu-L-Gln-L-Val-NH2 (Ac-SEQ ID NO:22-NH2) in complete Epilife medium or in complete Epilife medium as a negative control. The incubations and the treatments were carried out in duplicate for each condition.
24 hours after the treatments, the cells were homogenized and the RNA was extracted and purified from each replica and each condition by means of the RNeasyPlus Mini kit by Qiagen. Briefly, RNases were inactivated from cells lysates and samples were passed through special RNA binding columns to eliminate contaminants and impurities and after several microcentrifugation washes, the purified RNA was eluted with 50 μl of ultrapure water. The purity, integrity and concentration of the RNA obtained was evaluated by means of spectrophotometry (Nanodrop) and with a bioanalyzer (Agilent Bioanalyzer).
The marking of the purified RNA was carried out as was the hybridization of the samples in a human gene expression microarray (ASurePrint G3, Agilent). The normalized values obtained with the treatment were compared with the normalized values obtained with the negative control to obtain genes with differential expression. Next, a parametric analysis of the data was carried out by means of the Bioconductor software. Then, the values obtained were evaluated by means of GSEA (Gene Set Analysis Enrichment) to group the genes with differential expression in terms of Gene Ontology. Biological Routes and most significant pathways with a False Discovery Rate (FDR) lower than 25% were selected.

[2] = test system: senescence-associated β-galactosidase (SA-β-Gal) in HDFa cells; test: Reduction of cell senescence in human fibroblasts (SA-β-Gal histochemical detection); settings: for Proportion of positive SA-β-gal cells: 24 hours, HDF, control 27.28
Procedure: A widely used assay to evaluate cell senescence is histochemical detection of the activity, of the β-galactosidase, called SA-β-Gal. The activity of the β-galactosidase is derived from the increase in the lysosomal content of senescent cells, which enables the detection of the lysosomal β-galactosidase at pH 6.0. The β-galactosidase is considered a marker of senescence both in vitro and in vivo.
With this objective, HDFa cells from phase 4 of a person were seeded in 96-well plates at 10,000 cells/well in culture medium 106 supplemented with 2% LSGS. After 24 hours the culture medium was removed and the cells were treated with 0.025 mg/mL and 0.01 mg/mL of Ac-L-Tyr-L-Glu-L-Lys-L-Leu-L-Gln-L-Val-NH2 (Ac-SEQ ID NO:22-NH2) in culture medium 106 for another 24 hours at 37° C. and humidified air with 5% CO2.
As a positive control of cell senescence (old fibroblasts) HDFa from phase […] of a person were used treated with culture medium; as a negative control of cell senescence (juvenile fibroblasts) HDFa from phase 4 were used from a person treated with culture medium.
After the incubation period the activity of the senescence-associated β-galactosidase (SA-β-Gal) was determined with the Senescence Cells Histochemical Kit.

HDFa cells = test: Photoprotective effectiveness in human fibroblasts (Neutral Red viability after solar simulation irradiation); settings: for Effectiveness Photoprotection (%): irradiated; for Cell viability: preincubated 1 hour, irradiated ~60 J/cm^2, irradiated control 50.72%
Procedure: HDFa cells were put in culture medium for 24 hours in 96-well plates to form monolayers. Afterwards the cells were preincubated in darkness with 0.5 mg/mL, 0.1 mg/mL, 0.01 mg/mL of Ac-L-Tyr-L-Glu-L-Lys-L-Leu-L-Gln-L-Val-NH2 (Ac-SEQ ID NO:22-NH2) in PBS or PBS alone (control) for 1 hour at 37° C. and humidified air with 5% CO2.
The cells were irradiated with a solar simulation lamp at ˜60 J/cm^2 for 210 min at room temperature. A control plate was kept in the dark for the same time at room temperature. Once irradiation was completed the culture medium was changed for a new one and the plates were incubated for another 24 hours.
The cell viability was determined with the Neutral Red dye, measuring the absorbency at 540 nm in a spectrophotometer.
The photoprotective effectiveness was determined by comparing the viability obtained in cells treated with Ac-L-Tyr-L-Glu-L-Lys-L-Leu-L-Gln-L-Val-NH2 (Ac-SEQ ID NO:22-NH2) with the irradiated and non-irradiated control cell response.

For “Ac-YEKLQV-NH2 [Ac-SEQ ID NO: 22-NH2, Ac-L-Tyr-L-Glu-L-Lys-L-Leu-L-Gln-L-Val-NH2]”, the “% Expression induction, ACD” value ([1]; gene ACD, LONGEVITY, TELOMERE MAINTENANCE AND PROTECTION) was 10.76%, the “% Expression induction, AIF1” value ([1]; gene AIF1, INFLAMMATION, ANTI-INFLAMMATORY RESPONSE) was 19.02% and the “% Expression induction, ANXA1” value ([1]; gene ANXA1, INFLAMMATION, ANTI-INFLAMMATORY RESPONSE) was 8.22%. The “% Expression induction, ANXA4” value ([1]; gene ANXA4, INFLAMMATION, ANTI-INFLAMMATORY RESPONSE) was 17.69%, the “% Expression induction, ANXA5” value ([1]; gene ANXA5, INFLAMMATION, ANTI-INFLAMMATORY RESPONSE) was 22.32% and the “% Expression induction, ATM” value ([1]; gene ATM, CELL CYCLE) was 48.53%. For the same substance, the “% Expression induction, ATRX” value ([1]; gene ATRX, HELICASE ACTIVITY and ATPase ACTIVITY) was 48.65%, the “% Expression induction, BAG4” value ([1]; gene BAG4, APOPTOSIS INHIBITION) was 32.42% and the “% Expression induction, BAX” value ([1]; gene BAX, APOPTOSIS INHIBITION) was −60.73%. The “% Expression induction, BCL2” value ([1]; gene BCL2, APOPTOSIS INHIBITION) was 59.91%, the “% Expression induction, BCL2L2” value ([1]; gene BCL2L2, APOPTOSIS INHIBITION) was 32.49% and the “% Expression induction, BIRC3” value ([1]; gene BIRC3, APOPTOSIS INHIBITION) was 16.84%. The “% Expression induction, BIRC6” value ([1]; gene BIRC6, APOPTOSIS INHIBITION) was 73.14%, the “% Expression induction, BNIP2” value ([1]; gene BNIP2, APOPTOSIS INHIBITION) was 30.68% and the “% Expression induction, BNIP3L” value ([1]; gene BNIP3L, APOPTOSIS INHIBITION) was 31.39%. The “% Expression induction, CASP3” value ([1]; gene CASP3, APOPTOSIS ACTIVATION) was 31.18%, the “% Expression induction, CDK7” value ([1]; gene CDK7, DNA repair, Protein DNA Complex Assembly) was 14.31% and the “% Expression induction, CHD1” value ([1]; gene CHD1, HELICASE ACTIVITY and ATPase ACTIVITY) was 40.46%. For the same substance, the “% Expression induction, CHD2” value ([1]; gene CHD2, HELICASE ACTIVITY and ATPase ACTIVITY) was 42.59%, the “% Expression induction, DDX1” value ([1]; gene DDX1, HELICASE ACTIVITY and ATPase ACTIVITY) was 26.92% and the “% Expression induction, DDX10” value ([1]; gene DDX10, HELICASE ACTIVITY and ATPase ACTIVITY) was 27.49%. The “% Expression induction, DDX25” value ([1]; gene DDX25, HELICASE ACTIVITY and ATPase ACTIVITY) was 16.24%, the “% Expression induction, ERCC6” value ([1]; gene ERCC6, HELICASE ACTIVITY and ATPase ACTIVITY) was 74.50% and the “% Expression induction, ERCC8” value ([1]; gene ERCC8, DNA repair, Protein DNA Complex Assembly) was 8.90%. For the same substance, the “% Expression induction, FAS” value ([1]; gene FAS, APOPTOSIS INHIBITION) was −15.36%, the “% Expression induction, IL6” value ([1]; gene IL6, INFLAMMATION, ANTI-INFLAMMATORY RESPONSE) was −26.30% and the “% Expression induction, MAPK8” value ([1]; gene MAPK8, APOPTOSIS INHIBITION) was −33.72%. The “% Expression induction, MCL1” value ([1]; gene MCL1, APOPTOSIS ACTIVATION) was −17.76%, the “% Expression induction, MED4” value ([1]; gene MED4, DNA repair, Protein DNA Complex Assembly) was 28.80% and the “% Expression induction, MED13” value ([1]; gene MED13, DNA repair, Protein DNA Complex Assembly) was 56.75%. For the same substance, the “% Expression induction, MED14” value ([1]; gene MED14, DNA repair, Protein DNA Complex Assembly) was 32.54%, the “% Expression induction, MED17” value ([1]; gene MED17, DNA repair, Protein DNA Complex Assembly) was 46.25% and the “% Expression induction, MNAT1” value ([1]; gene MNAT1, DNA repair, Protein DNA Complex Assembly) was 17.84%. For the same substance, the “% Expression induction, MSH4” value ([1]; gene MSH4, CELL CYCLE) was 33.28%, the “% Expression induction, MYC” value ([1]; gene MYC, APOPTOSIS ACTIVATION) was 41.70% and the “% Expression induction, NLRP3” value ([1]; gene NLRP3, INFLAMMATION, ANTI-INFLAMMATORY RESPONSE) was 36.49%. For the same substance, the “% Expression induction, NLRP12” value ([1]; gene NLRP12, INFLAMMATION, ANTI-INFLAMMATORY RESPONSE) was 39.96%, the “% Expression induction, PAPD7” value ([1]; gene PAPD7, DNA POLYMERASE ACTIVITY) was 65.27% and the “% Expression induction, POLA1” value ([1]; gene POLA1, DNA POLYMERASE ACTIVITY) was 29.28%. The “% Expression induction, POLD4” value ([1]; gene POLD4, DNA POLYMERASE ACTIVITY) was 31.74%, the “% Expression induction, POLH” value ([1]; gene POLH, DNA POLYMERASE ACTIVITY) was 28.96% and the “% Expression induction, PTEN” value ([1]; gene PTEN, other genes involved in LONGEVITY) was 26.04%. For the same substance, the “% Expression induction, RAD17” value ([1]; gene RAD17, CELL CYCLE) was 0.21%, the “% Expression induction, RAD21” value ([1]; gene RAD21, CELL CYCLE) was 18.22% and the “% Expression induction, RAD50” value ([1]; gene RAD50, CELL CYCLE) was 37.66%. For the same substance, the “% Expression induction, RAD54B” value ([1]; gene RAD54B, CELL CYCLE) was 26.20%, the “% Expression induction, SETX” value ([1]; gene SETX, HELICASE ACTIVITY and ATPase ACTIVITY) was 65.33% and the “% Expression induction, SH3GLB1” value ([1]; gene SH3GLB1, APOPTOSIS ACTIVATION) was 52.57%. For the same substance, the “% Expression induction, SMARCA1” value ([1]; gene SMARCA1, HELICASE ACTIVITY and ATPase ACTIVITY) was 29.62%, the “% Expression induction, SOCS2” value ([1]; gene SOCS2, INFLAMMATION, ANTI-INFLAMMATORY RESPONSE) was 56.13% and the “% Expression induction, TAF1” value ([1]; gene TAF1, DNA repair, Protein DNA Complex Assembly) was 65.00%. The “% Expression induction, TAF2” value ([1]; gene TAF2, DNA repair, Protein DNA Complex Assembly) was 25.12%, the “% Expression induction, TAF5” value ([1]; gene TAF5, DNA repair, Protein DNA Complex Assembly) was 8.18% and the “% Expression induction, TAX1BP1” value ([1]; gene TAX1BP1, APOPTOSIS INHIBITION) was 19.23%. The “% Expression induction, TEP1” value ([1]; gene TEP1, LONGEVITY, TELOMERE MAINTENANCE AND PROTECTION) was 38.49%, the “% Expression induction, TERF1” value ([1]; gene TERF1, LONGEVITY, TELOMERE MAINTENANCE AND PROTECTION) was 7.38% and the “% Expression induction, TERF2IP” value ([1]; gene TERF2IP, LONGEVITY, TELOMERE MAINTENANCE AND PROTECTION) was 21.63%. The “% Expression induction, TINF2” value ([1]; gene TINF2, LONGEVITY, TELOMERE MAINTENANCE AND PROTECTION) was 13.37%, the “% Expression induction, TP53BP2” value ([1]; gene TP53BP2, APOPTOSIS ACTIVATION) was 22.34% and the “% Expression induction, WRN” value ([1]; gene WRN, HELICASE ACTIVITY and ATPase ACTIVITY) was 35.25%. For the same substance, the “% Expression induction, XIAP” value ([1]; gene XIAP, APOPTOSIS INHIBITION) was 51.98%, the “% Expression induction, XRCC2” value ([1]; gene XRCC2, CELL CYCLE) was 24.95% and the “Proportion of positive SA-β-gal cells” value ([2]; 0.01 mg/mL) was 7.02. The “Proportion of positive SA-β-gal cells” value ([2]; 0.025 mg/mL) was 16.90, the “Effect on proportion of cells containing β-galactosidase (in words)” value ([2]; HDFa) was “reduced the proportion of cells containing β-galactosidase” and the “Effectiveness Photoprotection (%)” value (HDFa cells; 0.01 mg/mL) was 16.24%. For the same substance, the Cell viability (HDFa cells; 0.01 mg/mL) was 58.96%, the “Effectiveness Photoprotection (%)” value (HDFa cells; 0.1 mg/mL) was 20.06% and the Cell viability (HDFa cells; 0.1 mg/mL) was 60.90%. The “Effectiveness Photoprotection (%)” value (HDFa cells; 0.5 mg/mL) was 35.10% and the Cell viability (HDFa cells; 0.5 mg/mL) was 68.52%.
